{
  "source": "patent US20120164729A1",
  "about": "“COMPOSITION FOR CULTURING PLURIPOTENT STEM CELLS AND USE THEREOF” (NATIONAL UNIVERSITY CORPORATION CHIBA UNIVERSITY, priority 2010, published 2012)",
  "format_in_all_cases": "cell-based, human",
  "key": {"201B7 cells [1]": {"test_system": "201B7 cells", "assay": "Immunostaining of subcultured cells for pluripotency markers (Oct3/4, Nanog, SSEA4, TRA-1-60)", "conditions": "cells subcultured from the 11th passage", "experimental": "Each of the cells at the 11th passage was seeded on a Matrigel-coated 4-well slide glass, and subculture was continued. When the cells reached 70% confluency, the medium was removed, and the cells were washed once with PBS. The cells were immobilized with 4% para-formaldehyde, and then were washed three times with PBS. Meanwhile, in the case of staining for Oct3/4 and Nanog, a permeabilization solution (0.2% Triton X-100 (PBS solution)) was added to the cells, and the cells were left to stand for 15 minutes at room temperature. Subsequently, the cells were washed three times for 5 minutes with a washing buffer (2% FBS (PBS solution)).\nThereafter, primary antibodies diluted with the washing buffer were added to the cells, and the cells were left to stand overnight at 4° C. Meanwhile, the types of the various primary antibodies and the dilution ratios are as follows.\nMouse anti-Oct3/4 antibody (BD Transduction Laboratories): 200 times\nRabbit anti-Nanog antibody (manufactured by ReproCELL Inc.): 1000 times\nMouse anti-SSEA4 antibody (manufactured by Chemicon Corporation): 200 times\nMouse anti-TRA-1-60 antibody (manufactured by Chemicon Corporation): 200 times\nSubsequently, the cells were […] three times for 5 minutes with the washing buffer, and then secondary antibodies diluted with the washing buffer were added. The cells were left to stand for one hour at 4° C. […]"}, "201B7 cells [2]": {"test_system": "201B7 cells", "assay": "Effect of activin A on differentiation of embryoid bodies formed by hanging drop culture (microscopic observation)", "conditions": "activin A 100 ng/mL instead of bFGF; at least 14 days after the initiation of culture; Matrigel-coated plate", "experimental": "Cell culture was carried out using cells of strain HPS0001 201B7, which are human induced pluripotent stem cells (iPS cells), obtained from RIKEN BioResource Center, Cell Bank. The cell culture was carried out in a humidified chamber at 37° C. under the conditions of 5% CO2 using, as a medium, Dulbecco […] (DMEM)-F12 medium (manufactured by Sigma-Aldrich Japan K.K.) supplemented with a knockout serum replacement additive (KSR; manufactured by Life Technologies Japan, Ltd. (final concentration 20%), a 1/100 dilution of 100-times concentrated […] (manufactured by Life Technologies Japan, Ltd.), 2 mM L-glutamine (manufactured by Life Technologies Japan, Ltd.), 0.1 mM 2-mercaptoethanol (manufactured by Sigma-Aldrich Japan K.K.), and 5 ng/mL of basic fibroblast growth factor (bFGF; manufactured by Wako Pure Chemical industries, Ltd.). At this time, 201B7 cell line was proliferated by co-culturing 201B7 cell line on cells of strain SNL76/7, which are mouse-derived fetal fibroblasts proliferated on a culture plate (manufactured by AGC Techno Glass Corp.) treated with mitomycin C (manufactured by Sigma-Aldrich Japan K.K.) and coated with gelatin (manufactured by Sigma-Aldrich Japan K.K.), and the 201B7 cell line was maintained. Also, at the time of subculturing, cells were collected using a CTK solution. […]"}, "201B7 cells [3]": {"test_system": "201B7 cells", "assay": "Alkaline phosphatase staining of subcultured cells at the 12th passage", "conditions": "activin A 10 ng/mL, CHIR99021 2 μM, LIF 1000 U/mL", "excerpt": "Among the cells that had been subcultured as described above, those subcultured in the presence of activin A alone (A), a combination of activin A+CHIR99021 (AC), and a combination of activin A+CHIR99021+LIF (ACL) were subjected to alkaline phosphatase staining as described above, at the 12th passage. The results are shown in the photographs on the left side of FIG. 5."}, "201B7 cells [4]": {"test_system": "201B7 cells", "assay": "Confirmation of maintenance of undifferentiation potency by alkaline phosphatase (ALP) staining and phase contrast morphology", "excerpt": "It was confirmed by alkaline phosphatase (ALP) staining that the 201B7 cells cultured in the presence of activin A maintained undifferentiation potency. Meanwhile, the photographs on the left side of FIG. 3 are images observed with a phase contrast microscope, and the photographs on the right side are images observed after ALP staining."}, "201B7 cells [5]": {"test_system": "201B7 cells", "assay": "Evaluation of cell proliferative capacity by MTS assay", "conditions": "FIG. 2", "experimental": "The proliferative capacity of 201B7 cells that had been cultured in the presence of activin A was evaluated by an MTS assay."}},
  "data": [
    {"substance": "activin A: homodimer of the β chain of inhibin A (βAβA), TGF-β superfamily protein; manufactured by R & D Systems, Inc.", "values": [
      {"measurement": "staining of nuclei by anti-Oct3/4 antibody", "setting": "201B7 cells [1]", "result": "positively stained"},
      {"measurement": "morphological condition of embryoid bodies", "setting": "201B7 cells [2]", "result": "maintained a morphologically undifferentiated condition"},
      {"measurement": "ALP staining", "setting": "201B7 cells [3]", "result": "positive"},
      {"measurement": "concentration of added activin A at which iPS cells can maintain undifferentiation potency", "setting": "201B7 cells [4]; ALP staining and morphology", "result": "0.01 to 0.1", "unit": "µg/mL"},
      {"measurement": "ALP staining", "setting": "201B7 cells [4]; activin A 1 ng/mL", "result": "positive"},
      {"measurement": "cell morphology", "setting": "201B7 cells [4]; activin A 1 ng/mL", "result": "slightly similar to fibroblasts"},
      {"measurement": "ALP staining", "setting": "201B7 cells [4]; activin A 10 ng/mL", "result": "positive"},
      {"measurement": "cell morphology", "setting": "201B7 cells [4]; activin A 10 ng/mL", "result": "maintained an undifferentiated condition"},
      {"measurement": "ALP staining", "setting": "201B7 cells [4]; activin A 30 ng/mL", "result": "positive"},
      {"measurement": "cell morphology", "setting": "201B7 cells [4]; activin A 30 ng/mL", "result": "maintained an undifferentiated condition"},
      {"measurement": "ALP staining", "setting": "201B7 cells [4]; activin A 100 ng/mL", "result": "positive"},
      {"measurement": "cell morphology", "setting": "201B7 cells [4]; activin A 100 ng/mL", "result": "maintained an undifferentiated condition"},
      {"measurement": "concentration of added activin at which 201B7 cells had proliferative capacity", "setting": "201B7 cells [5]", "result": "3 to 30", "unit": "ng/mL"}
    ]}
  ]
}
